What was measured:
[1] = tested on: synthesis of LTB4 in human whole blood; assay: Human whole blood assay (inhibition of LTB4 synthesis, calcimycin stimulated); assay type: cell-based; settings: heparinized human whole blood, calcimycin 20 μM, plasma LTB4
How it was run: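 Readout: plasma LTB4 by antibody-based HTRF. Compound added to heparinized human whole blood, 15 min 37° C; calcimycin 20 μM final (PBS pH 7.4), 30 min 37° C; spun 1500×g 5 min, plasma taken.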

[2] = biological target: T1, recombinant human FLAP protein (Homo sapiens, UniProt P20292); assay: FLAP binding assay (SPA, displacement of [125I]L-691,831); settings: for IC50: membranes of sf9 cells expressing recombinant human FLAP, [125I]L-691,831 probe, read-out: FLAP binding IC50
T1 construct: made in house; host or cells: Sf9 insect cells (100,000×g membrane pellet used)
T1 sequence (P20292 1-161): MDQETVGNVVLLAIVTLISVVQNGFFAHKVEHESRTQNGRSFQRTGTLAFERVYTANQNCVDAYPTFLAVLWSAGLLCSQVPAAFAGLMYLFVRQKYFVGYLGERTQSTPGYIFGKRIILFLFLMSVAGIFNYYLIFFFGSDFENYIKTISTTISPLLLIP
How it was run: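 Membranes from sf9 cells expressing human FLAP in pH 7.5 Tris buffer (MgCl2, EDTA, PMSF). Non-specific binding defined with 10 μM cold L-691,831.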

| IC50 [1] [nM] | IC50 [2] [nM] | inhibition at 1 µM ([2]; at 1000 nM, read-out: FLAP binding % inh @ 1000 nM) [%] | Structure (SMILES) |
| --- | --- | --- | --- |
| 14 | 1.1 |  | COCCn1cc(-c2nc([C@@](C)(c3ccc(-c4cnc(N)nc4)cc3)C(C)C)no2)cn1 [Example 63, 5-{4-[(2R)-2-{5-[1-(2-methoxyethyl)-1H-pyrazol-4-yl]-1,2,4-oxadiazol-3-yl}-3-methylbutan-2-yl]phenyl}pyrimidin-2-amine] |
| 410 | 16 |  | COCCn1cc(-c2nc([C@](C)(c3ccc(-c4cnc(N)nc4)cc3)C(C)C)no2)cn1 [Example 64, 5-{4-[(2S)-2-{5-[1-(2-methoxyethyl)-1H-pyrazol-4-yl]-1,2,4-oxadiazol-3-yl}-3-methylbutan-2-yl]phenyl}pyrimidin-2-amine] |
| 1500 | 75 |  | Cn1cc(-c2nc([C@@H](c3ccc(-c4cnc(N)nc4)cc3)C(C)(C)C)no2)cn1 [Example 65, 5-(4-{(1R)-2,2-dimethyl-1-[5-(1-methyl-1H-pyrazol-4-yl)-1,2,4-oxadiazol-3-yl]propyl}phenyl)pyrimidin-2-amine] |
| 330 | 11 |  | Cn1cc(-c2nc([C@H](c3ccc(-c4cnc(N)nc4)cc3)C(C)(C)C)no2)cn1 [Example 66, 5-(4-{(1S)-2,2-dimethyl-1-[5-(1-methyl-1H-pyrazol-4-yl)-1,2,4-oxadiazol-3-yl]propyl}phenyl)pyrimidin-2-amine] |
| 190 | 6.2 |  | CC(C)C(c1ccc(-c2cnc(N)nc2)cc1)c1noc(-c2cnn(C)c2)n1 (stereo not drawn) [Example 67, 5-(4-{2-methyl-1-[5-(1-methyl-1H-pyrazol-4-yl)-1,2,4-oxadiazol-3-yl]propyl}phenyl)pyrimidin-2-amine] |
| 93 | 6.7 |  | Cn1cc(-c2nc(C(C)(C)c3ccc(-c4cnc(N)nc4)cc3)no2)cn1 [Example 68, 5-(4-{2-[5-(1-methyl-1H-pyrazol-4-yl)-1,2,4-oxadiazol-3-yl]propan-2-yl}phenyl)pyrimidin-2-amine] |
| 120 | 7.7 |  | CC(C)(c1ccc(-c2cnc(N)nc2)cc1)c1noc(-c2cn[nH]c2)n1 [Example 69, 5-(4-{2-[5-(1H-pyrazol-4-yl)-1,2,4-oxadiazol-3-yl]propan-2-yl}phenyl)pyrimidin-2-amine] |
| 590 | 7.1 |  | CC(C)(O)CNc1ccc(-c2nc(C(C)(C)c3ccc(-c4cnc(N)nc4)cc3)no2)cn1 [Example 70, 1-{[5-(3-{2-[4-(2-aminopyrimidin-5-yl)phenyl]propan-2-yl}-1,2,4-oxadiazol-5-yl)pyridin-2-yl]amino}-2-methylpropan-2-ol] |
| 900 | 17 |  | CC(C)(c1ccc(-c2cnc(N)nc2)cc1)c1noc(-c2ccc(NCCS(C)(=O)=O)nc2)n1 [Example 71, 5-(4-{2-[5-(6-{[2-(methylsulfonyl)ethyl]amino}pyridin-3-yl)-1,2,4-oxadiazol-3-yl]propan-2-yl}phenyl)pyrimidin-2-amine] |
| 440 | 12 |  | CC(C)(CO)Nc1ccc(-c2nc(C(C)(C)c3ccc(-c4cnc(N)nc4)cc3)no2)cn1 [Example 72, 2-{[5-(3-{2-[4-(2-aminopyrimidin-5-yl)phenyl]propan-2-yl}-1,2,4-oxadiazol-5-yl)pyridin-2-yl]amino}-2-methylpropan-1-ol] |
| 990 | 28 |  | CC(C)(O)CNc1cnc(-c2nc(C(C)(C)c3ccc(-c4cnc(N)nc4)cc3)no2)cn1 [Example 73, 1-{[5-(3-{2-[4-(2-aminopyrimidin-5-yl)phenyl]propan-2-yl}-1,2,4-oxadiazol-5-yl)pyrazin-2-yl]amino}-2-methylpropan-2-ol] |
| 640 | 17 |  | CC(C)(CO)Nc1cnc(-c2nc(C(C)(C)c3ccc(-c4cnc(N)nc4)cc3)no2)cn1 [Example 74, 2-{[5-(3-{2-[4-(2-aminopyrimidin-5-yl)phenyl]propan-2-yl}-1,2,4-oxadiazol-5-yl)pyrazin-2-yl]amino}-2-methylpropan-1-ol] |
| 260 | 23 |  | CC(C)(O)Cn1cc(-c2nc(C(C)(C)c3ccc(-c4cnc(N)nc4)cc3)no2)cn1 [Example 75, 1-[4-(3-{2-[4-(2-aminopyrimidin-5-yl)phenyl]propan-2-yl}-1,2,4-oxadiazol-5-yl)-1H-pyrazol-1-yl]-2-methylpropan-2-ol] |
| 270 | 35 |  | COCCn1cc(-c2nc(C(C)(C)c3ccc(-c4cnc(N)nc4)cc3)no2)cn1 [Example 76, 5-[4-(2-{5-[1-(2-methoxyethyl)-1H-pyrazol-4-yl]-1,2,4-oxadiazol-3-yl}propan-2-yl)phenyl]pyrimidin-2-amine] |
| 36 | 1.7 |  | CC(C)[C@](C)(c1ccc(-c2cnc(N)nc2)cc1)c1noc(-c2cn[nH]c2)n1 [Example 77, 5-(4-{(2R)-3-methyl-2-[5-(1H-pyrazol-4-yl)-1,2,4-oxadiazol-3-yl]butan-2-yl}phenyl)pyrimidin-2-amine] |
| 240 | 1.3 |  | CC(C)[C@@](C)(c1ccc(-c2cnc(N)nc2)cc1)c1noc(-c2cn[nH]c2)n1 [Example 78, 5-(4-{(2S)-3-methyl-2-[5-(1H-pyrazol-4-yl)-1,2,4-oxadiazol-3-yl]butan-2-yl}phenyl)pyrimidin-2-amine] |
| 2200 | 150 |  | CNC(=O)Cn1cc(-c2nc(C(C)(C)c3ccc(-c4cnc(N)nc4)cc3)no2)cn1 [Example 79, 2-[4-(3-{2-[4-(2-aminopyrimidin-5-yl)phenyl]propan-2-yl}-1,2,4-oxadiazol-5-yl)-1H-pyrazol-1-yl]-N-methylacetamide] |
| 350 | 23 |  | CC(C)C(C)(c1ccc(-c2cnc(N)nc2)cc1)c1noc(NCCO)n1 (stereo not drawn) [Example 80, 2-[(3-{2-[4-(2-aminopyrimidin-5-yl)phenyl]-3-methylbutan-2-yl}-1,2,4-oxadiazol-5-yl)amino]ethanol] |
| 180 | 11 |  | COCCNc1nc(C(C)(c2ccc(-c3cnc(N)nc3)cc2)C(C)C)no1 (stereo not drawn) [Example 81, 5-[4-(2-{5-[(2-methoxyethyl)amino]-1,2,4-oxadiazol-3-yl}-3-methylbutan-2-yl)phenyl]pyrimidin-2-amine] |
| 220 | 13 |  | CC(C)C(C)(c1ccc(-c2cnc(N)nc2)cc1)c1noc(NCC(C)(C)O)n1 (stereo not drawn) [Example 82, 1-[(3-{2-[4-(2-aminopyrimidin-5-yl)phenyl]-3-methylbutan-2-yl}-1,2,4-oxadiazol-5-yl)amino]-2-methylpropan-2-ol] |
| 1100 | 26 |  | CC(C)C(C)(c1ccc(-c2cnc(N)nc2)cc1)c1noc(N2CCNCC2)n1 (stereo not drawn) [Example 83, 5-(4-{3-methyl-2-[5-(piperazin-1-yl)-1,2,4-oxadiazol-3-yl]butan-2-yl}phenyl)pyrimidin-2-amine] |
| 1700 | 120 |  | CC(C)C(C)(c1ccc(-c2cnc(N)nc2)cc1)c1noc(C(=O)N2CCNCC2)n1 (stereo not drawn) [Example 84, (3-{2-[4-(2-aminopyrimidin-5-yl)phenyl]-3-methylbutan-2-yl}-1,2,4-oxadiazol-5-yl)(piperazin-1-yl)methanone] |
| > 5000 | 48 |  | CC(C)C(C)(c1ccc(-c2cnc(N)nc2)cc1)c1noc(CCC(C)(C)C(=O)O)n1 (stereo not drawn) [Example 85, 4-(3-{2-[4-(2-aminopyrimidin-5-yl)phenyl]-3-methylbutan-2-yl}-1,2,4-oxadiazol-5-yl)-2,2-dimethylbutanoic acid] |
| > 5000 | 190 |  | CC(=O)N1CCC(NC(=O)c2nc(C(C)(c3ccc(-c4cnc(N)nc4)cc3)C(C)C)no2)CC1 (stereo not drawn) [Example 86, N-(1-acetylpiperidin-4-yl)-3-{2-[4-(2-aminopyrimidin-5-yl)phenyl]-3-methylbutan-2-yl}-1,2,4-oxadiazole-5-carboxamide] |
| 970 | 41 |  | CC(C)C(C)(c1ccc(-c2cnc(N)nc2)cc1)c1noc(NCCS(C)(=O)=O)n1 (stereo not drawn) [Example 87, 5-{4-[3-methyl-2-(5-{[2-(methylsulfonyl)ethyl]amino}-1,2,4-oxadiazol-3-yl)butan-2-yl]phenyl}pyrimidin-2-amine] |
| > 5000 |  | 51 | CC(C)C(C)(c1ccc(-c2cnc(N)nc2)cc1)c1noc(O)n1 (stereo not drawn) [Example 88, 3-{1-[4-(2-Amino-pyrimidin-5-yl)-phenyl]-1,2-dimethyl-propyl}-[1,2,4]oxadiazol-5-ol] |
| 270 | 13 |  | CC(C)C(C)(c1ccc(-c2cnc(N)nc2)cc1)c1noc(N2CCOCC2)n1 (stereo not drawn) [Example 89, 5-(4-{3-methyl-2-[5-(morpholin-4-yl)-1,2,4-oxadiazol-3-yl]butan-2-yl}phenyl)pyrimidin-2-amine] |
| 1500 | 63 |  | CC(C)C(C)(c1ccc(-c2cnc(N)nc2)cc1)c1noc(C(=O)N2CCOCC2)n1 (stereo not drawn) [Example 90, (3-{2-[4-(2-aminopyrimidin-5-yl)phenyl]-3-methylbutan-2-yl}-1,2,4-oxadiazol-5-yl)(morpholin-4-yl)methanone] |
| 1300 | 54 |  | CC(C)C(C)(c1ccc(-c2cnc(N)nc2)cc1)c1noc(C(=O)N2CCN(C)CC2)n1 (stereo not drawn) [Example 91, (3-{2-[4-(2-aminopyrimidin-5-yl)phenyl]-3-methylbutan-2-yl}-1,2,4-oxadiazol-5-yl)(4-methylpiperazin-1-yl)methanone] |
| > 5000 | 110 |  | CC(C)C(C)(c1ccc(-c2cnc(N)nc2)cc1)c1noc(C(C)(C)CC(=O)O)n1 (stereo not drawn) [Example 92, 3-(3-{2-[4-(2-aminopyrimidin-5-yl)phenyl]-3-methylbutan-2-yl}-1,2,4-oxadiazol-5-yl)-3-methylbutanoic acid] |

From patent US8658661B2, “Oxadiazole inhibitors of leukotriene production” (Boehringer Ingelheim International GmbH, priority 2010, dated 2014)
